Assays:
[1] = test system: LAT1; conditions: cited from earlier work
[2] = target: LAT1 (SLC7A5) (Homo sapiens, UniProt Q01650); assay: [3H]-L-leucine efflux assay in preloaded HT-29 cells; assay type: cell-based; conditions: concentration not stated
LAT1 (SLC7A5), sequence (Q01650 whole entry): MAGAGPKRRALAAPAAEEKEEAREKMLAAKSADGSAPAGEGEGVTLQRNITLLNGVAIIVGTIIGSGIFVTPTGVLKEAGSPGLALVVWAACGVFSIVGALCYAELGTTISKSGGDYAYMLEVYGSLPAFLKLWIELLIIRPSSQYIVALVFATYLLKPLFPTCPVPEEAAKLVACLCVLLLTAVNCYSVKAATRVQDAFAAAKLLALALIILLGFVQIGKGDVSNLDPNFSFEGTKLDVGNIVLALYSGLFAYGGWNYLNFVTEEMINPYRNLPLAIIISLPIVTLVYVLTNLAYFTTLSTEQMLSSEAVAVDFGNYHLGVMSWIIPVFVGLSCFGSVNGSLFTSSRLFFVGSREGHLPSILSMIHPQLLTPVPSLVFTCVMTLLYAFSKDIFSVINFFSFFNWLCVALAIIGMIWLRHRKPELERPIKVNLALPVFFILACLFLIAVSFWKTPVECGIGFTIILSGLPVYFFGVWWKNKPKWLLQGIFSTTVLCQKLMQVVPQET
LAT1 (SLC7A5), sequence (P08195 102-630 partner): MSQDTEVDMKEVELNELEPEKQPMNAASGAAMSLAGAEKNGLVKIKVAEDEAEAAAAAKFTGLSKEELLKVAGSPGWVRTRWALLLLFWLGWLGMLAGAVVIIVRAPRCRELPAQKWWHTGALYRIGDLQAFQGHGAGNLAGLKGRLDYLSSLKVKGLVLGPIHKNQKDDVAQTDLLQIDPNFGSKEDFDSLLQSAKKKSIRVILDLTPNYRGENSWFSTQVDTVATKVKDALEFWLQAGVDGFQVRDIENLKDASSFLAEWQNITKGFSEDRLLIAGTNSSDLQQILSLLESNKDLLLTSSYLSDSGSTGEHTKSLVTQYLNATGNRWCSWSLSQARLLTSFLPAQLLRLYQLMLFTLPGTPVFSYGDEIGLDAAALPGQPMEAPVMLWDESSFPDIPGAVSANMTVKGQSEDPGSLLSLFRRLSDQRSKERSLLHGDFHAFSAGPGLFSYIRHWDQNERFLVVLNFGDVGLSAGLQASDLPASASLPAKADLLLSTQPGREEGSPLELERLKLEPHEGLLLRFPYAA

Row | [3H]-L-leucine efflux from preloaded HT-29 cells / substrate for LAT1-mediated transport [2] | SMILES | LAT1 substrate properties [1]
1 | – | N[C@@H](Cc1c[nH]c2ccc(OCCF)cc12)C(=O)O [5‐(2‐fluoroethoxy)‐L‐tryptophan] | exhibit LAT1 substrate properties
2 | elicited clear [^3H]‐L‐leucine efflux | N[C@@H](Cc1c[nH]c2ccccc12)C(=O)O [L‐Trp, L‐tryptophan] | –

Reference: article PMC9545129 (Chemmedchem, 2022)
